Source: patent US9567345B2, “Pharmaceutically active pyrazolo-triazine derivatives” (LEAD DISCOVERY CENTER GMBH, priority 2012, dated 2017)

Columns and labels:
Type in all cases: biochemical
[1] = target: T1, CDK2/CycA (Homo sapiens, UniProt P24941); assay: CDK2 Enzymatic Activity Assay (Lance Kinase Activity Assay, FRET); conditions: Table 5B, class symbols per IC50 [nM] ranges of b581; read-out: CDK2: Selectivity of CDK7 inhibition over CDK2 inhibition
T1 construct: purchased Proqinase
In short: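 Compounds in an 8-step, 1:3 dilution series were incubated 1 h at room temperature with CDK2/CycA, ULight-MBP substrate and ATP in pH 7.5 HEPES buffer.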

[2] = target: CDK9/Cyclin T1 (Homo sapiens, UniProt P50750); assay: CDK9 Enzymatic Activity Assay (Lance Kinase Activity Assay, FRET); conditions: Table 5B, class symbols per IC50 [nM] ranges of b581; read-out: CDK9: Selectivity of CDK7 inhibition over CDK9 inhibition
Chain of CDK9/Cyclin T1 (P50750 whole entry): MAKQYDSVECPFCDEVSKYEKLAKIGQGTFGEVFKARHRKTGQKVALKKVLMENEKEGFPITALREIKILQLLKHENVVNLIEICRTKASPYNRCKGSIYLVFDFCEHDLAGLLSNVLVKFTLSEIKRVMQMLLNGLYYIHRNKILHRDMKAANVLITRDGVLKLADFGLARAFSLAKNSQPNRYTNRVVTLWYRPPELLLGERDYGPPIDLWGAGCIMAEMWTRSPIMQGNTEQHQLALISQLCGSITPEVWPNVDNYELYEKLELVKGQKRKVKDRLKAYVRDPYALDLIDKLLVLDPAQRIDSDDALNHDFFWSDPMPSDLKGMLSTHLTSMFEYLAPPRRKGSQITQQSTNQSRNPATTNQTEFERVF
Chain of CDK9/Cyclin T1 (O60563 whole entry partner): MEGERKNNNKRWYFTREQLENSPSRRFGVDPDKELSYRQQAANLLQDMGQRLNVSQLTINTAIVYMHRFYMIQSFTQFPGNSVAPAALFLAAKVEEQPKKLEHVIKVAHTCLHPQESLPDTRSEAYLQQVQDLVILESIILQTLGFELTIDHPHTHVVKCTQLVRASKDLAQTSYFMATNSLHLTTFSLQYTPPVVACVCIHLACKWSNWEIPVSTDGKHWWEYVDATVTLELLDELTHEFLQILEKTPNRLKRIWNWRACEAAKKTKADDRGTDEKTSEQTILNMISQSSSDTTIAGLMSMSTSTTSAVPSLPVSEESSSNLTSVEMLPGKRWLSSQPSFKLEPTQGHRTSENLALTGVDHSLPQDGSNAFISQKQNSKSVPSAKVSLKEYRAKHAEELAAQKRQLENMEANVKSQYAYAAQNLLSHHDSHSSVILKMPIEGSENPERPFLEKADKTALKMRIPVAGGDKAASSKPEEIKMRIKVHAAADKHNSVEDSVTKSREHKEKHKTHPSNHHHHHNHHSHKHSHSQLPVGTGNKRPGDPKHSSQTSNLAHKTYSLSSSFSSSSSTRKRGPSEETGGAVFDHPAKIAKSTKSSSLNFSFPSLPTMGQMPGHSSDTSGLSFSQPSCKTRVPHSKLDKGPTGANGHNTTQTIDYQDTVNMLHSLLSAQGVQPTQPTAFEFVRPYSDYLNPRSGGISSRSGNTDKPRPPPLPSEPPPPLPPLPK
In short: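 CDK9/cyclin T1 phosphorylation of a ULight-MBP peptide was run for 1 h at room temperature in pH 7.5 HEPES buffer with MgCl2, EGTA, DTT and Tween-20. It was followed by 1 h with Eu-anti-phospho-MBP antibody (4 nM) in EDTA detection buffer. TR-FRET loss gave IC50 from 8-point, 1:3 sigmoidal dose-response curves.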

[3] = target: CDK7/CycH/Mat1 (Homo sapiens, UniProt P50613); assay: CDK7 Enzymatic Activity Assay (Lance Kinase Activity Assay, FRET); conditions: CDK7/CycH/Mat1, 25 μM ATP final; class ranges; read-out: CDK7: IC50 [nM] for CDK7 inhibition
Chain of CDK7/CycH/Mat1 (P50613 whole entry): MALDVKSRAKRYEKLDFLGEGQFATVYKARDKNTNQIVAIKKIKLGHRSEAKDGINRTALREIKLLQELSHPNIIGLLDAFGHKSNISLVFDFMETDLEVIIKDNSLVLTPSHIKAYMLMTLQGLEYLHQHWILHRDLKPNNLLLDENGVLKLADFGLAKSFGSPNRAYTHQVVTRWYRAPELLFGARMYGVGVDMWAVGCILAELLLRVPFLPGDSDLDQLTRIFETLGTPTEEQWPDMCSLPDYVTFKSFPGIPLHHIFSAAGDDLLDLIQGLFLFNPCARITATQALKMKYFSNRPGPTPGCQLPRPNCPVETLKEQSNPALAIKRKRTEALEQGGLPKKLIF
In short: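 TR-FRET (LANCE) kinase assay: CDK7/CycH/Mat1 phosphorylates Ulight-MBP substrate for 1 h at room temperature in pH 7.5 HEPES buffer; detection 1 h with Eu-labelled anti-phospho antibody plus EDTA.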

Row | Compound | IC50 [1] [nM] | IC50 [2] [nM] | IC50 [3] [nM]
1 | CC(C)c1cnn2c(NCc3ccccc3-c3nnn(C)n3)nc(O[C@@H]3CCCNC3)nc12 [(VII-37), (R)-8-isopropyl-N-(2-(2-methyl-2H-tetrazol-5-yl)benzyl)-2-(piperidin-3-yloxy)pyrazolo[1,5-a][1,3,5]triazin-4-amine] | < 50 | > 2500 | < 5
2 | CC(C)c1cnn2c(NCc3ccccc3-n3ccnc3)nc(O[C@@H]3CCNC3)nc12 [(VII-27), (R)-N-(2-(1H-imidazol-1-yl)benzyl)-8-isopropyl-2-(pyrrolidin-3-yloxy)pyrazolo[1,5-a][1,3,5]triazin-4-amine] | 50 to 500 | 50 to 500 | < 5
3 | CC(C)c1cnn2c(NCc3ccccc3-n3ccnc3)nc(O[C@@H]3CCCNC3)nc12 [(VII-26), (R)-N-(2-(1H-imidazol-1-yl)benzyl)-8-isopropyl-2-(piperidin-3-yloxy)pyrazolo[1,5-a][1,3,5]triazin-4-amine] | 50 to 500 | 50 to 500 | < 5
4 | CCNC(=O)Oc1ccccc1CNc1nc(O[C@@H]2CCCNC2)nc2c(C(C)C)cnn12 [(VII-146), (R)-2-(((8-isopropyl-2-(piperidin-3-yloxy)pyrazolo[1,5-a][1,3,5]triazin-4-yl)amino)methyl)phenyl ethylcarbamate] | > 2500 | > 2500 | 10 to 25
5 | CC(C)c1cnn2c(NCc3ccccc3-c3cccs3)nc(OC3CCNCC3)nc12 [(VII-14), 8-isopropyl-2-(piperidin-4-yloxy)-N-(2-(thiophen-2-yl)benzyl)pyrazolo[1,5-a][1,3,5]triazin-4-amine] | 50 to 500 | 500 to 2500 | < 5
6 | CC(C)c1cnn2c(NCc3ccccc3-n3cncn3)nc(OC3CCNCC3)nc12 [(VII-22), N-(2-(1H-1,2,4-triazol-1-yl)benzyl)-8-isopropyl-2-(piperidin-4-yloxy)pyrazolo[1,5-a][1,3,5]triazin-4-amine] | 50 to 500 | 500 to 2500 | < 5
7 | CC(C)c1cnn2c(NCc3ccccc3-c3ccccn3)nc(O[C@@H]3CCCNC3)nc12 [(VII-34), (R)-8-isopropyl-2-(piperidin-3-yloxy)-N-(2-(pyridin-2-yl)benzyl)pyrazolo[1,5-a][1,3,5]triazin-4-amine] | 50 to 500 | 500 to 2500 | < 5
8 | CC(C)c1cnn2c(NCc3ccccc3F)nc(OC3CCN(C)CC3)nc12 [(VII-56), N-(2-fluorobenzyl)-8-isopropyl-2-((1-methylpiperidin-4-yl)oxy)pyrazolo[1,5-a][1,3,5]triazin-4-amine] | 500 to 2500 | 50 to 500 | 5 to 10
9 | CC(C)c1cnn2c(NCc3ccccc3-n3cccn3)nc(O[C@@H]3CCNC3)nc12 [(VII-02), (R)-N-(2-(1H-pyrazol-1-yl)benzyl)-8-isopropyl-2-(pyrrolidin-3-yloxy)pyrazolo[1,5-a][1,3,5]triazin-4-amine] | < 50 | 500 to 2500 | < 5
10 | CC(C)c1cnn2c(NCc3ccccc3-c3cccs3)nc(O[C@@H]3CCCNC3)nc12 [(VII-12), (R)-8-isopropyl-2-(piperidin-3-yloxy)-N-(2-(thiophen-2-yl)benzyl)pyrazolo[1,5-a][1,3,5]triazin-4-amine] | < 50 | 50 to 500 | < 5

Continued, values first:

Row | IC50 [1] [nM] | IC50 [2] [nM] | IC50 [3] [nM] | Compound
11 | 50 to 500 | > 2500 | < 5 | CC(C)c1cnn2c(NCc3ccccc3S(=O)(=O)N3CCN(C)CC3)nc(O[C@@H]3CCCNC3)nc12 [(VII-107), (R)-8-isopropyl-N-(2-((4-methylpiperazin-1-yl)sulfonyl)benzyl)-2-(piperidin-3-yloxy)pyrazolo[1,5-a][1,3,5]triazin-4-amine]
12 | 50 to 500 | > 2500 | < 5 | CC(C)c1cnn2c(NCc3ccccc3-n3cccn3)nc(OC3C[C@H]4CNC[C@@H]34)nc12 (stereo partly drawn) [(VII-123), N-(2-(1H-pyrazol-1-yl)benzyl)-2-((1R,5S)-3-azabicyclo[3.2.0]heptan-6-yloxy)-8-isopropylpyrazolo[1,5-a][1,3,5]triazin-4-amine]
13 | 50 to 500 | 500 to 2500 | < 5 | CC(C)c1cnn2c(NCc3ccccc3C(N)=O)nc(O[C@@H]3CCCNC3)nc12 [(VII-096), (R)-2-(((8-isopropyl-2-(piperidin-3-yloxy)pyrazolo[1,5-a][1,3,5]triazin-4-yl)amino)methyl)benzamide]
14 | > 2500 | > 2500 | 10 to 25 | C#CC(C)NC(=O)c1ccccc1CNc1nc(O[C@@H]2CCCNC2)nc2c(C(C)C)cnn12 (stereo partly drawn) [(VII-109), N-(but-3-yn-2-yl)-2-(((8-isopropyl-2-((R)-piperidin-3-yloxy)pyrazolo[1,5-a][1,3,5]triazin-4-yl)amino)methyl)benzamide]
15 | 500 to 2500 | > 2500 | 10 to 25 | CC(C)c1cnn2c(NCc3ccccc3-n3cccn3)nc(OC3CNCCOC3)nc12 (stereo not drawn) [(VII-122), 2-((1,4-oxazepan-6-yl)oxy)-N-(2-(1H-pyrazol-1-yl)benzyl)-8-isopropylpyrazolo[1,5-a][1,3,5]triazin-4-amine]
16 | 500 to 2500 | > 2500 | < 5 | CC(C)c1cnn2c(NCc3ccccc3N=S(C)(C)=O)nc(O[C@@H]3CCCNC3)nc12 [(VII-151), N-(2-(((8-isopropyl-2-((R)-piperidin-3-yloxy)pyrazolo[1,5-a][1,3,5]triazin-4-yl)amino)methyl)phenyl)-S,S-dimethylsulfoximine]
17 | > 2500 | > 2500 | > 25 | CC(C)c1cnn2c(NCc3ccccc3C3CCCC3)nc(O[C@@H]3CCCNC3)nc12 [(VII-142), (R)-N-(2-cyclopentylbenzyl)-8-isopropyl-2-(piperidin-3-yloxy)pyrazolo[1,5-a][1,3,5]triazin-4-amine]
18 | 500 to 2500 | > 2500 | 10 to 25 | CC(C)c1cnn2c(NCc3ccccc3Oc3ccccn3)nc(O[C@@H]3CCCNC3)nc12 [(VII-098), (R)-8-isopropyl-2-(piperidin-3-yloxy)-N-(2-(pyridin-2-yloxy)benzyl)pyrazolo[1,5-a][1,3,5]triazin-4-amine]
19 | 500 to 2500 | > 2500 | > 25 | CC(C)c1cnn2c(NCc3ccccc3-n3cccn3)nc(C(=O)N(C)CCN3CCOCC3)nc12 [(XII-06), 4-((2-(1H-pyrazol-1-yl)benzyl)amino)-8-isopropyl-N-methyl-N-(2-morpholinoethyl)pyrazolo[1,5-a][1,3,5]triazine-2-carboxamide]
20 | 50 to 500 | > 2500 | 5 to 10 | CC(C)c1cnn2c(NCc3ccccc3-n3cccn3)nc(NC3CCNC3)nc12 (stereo not drawn) [(VIII-043), N4-(2-(1H-pyrazol-1-yl)benzyl)-8-isopropyl-N2-(pyrrolidin-3-yl)pyrazolo[1,5-a][1,3,5]triazine-2,4-diamine]
21 | 50 to 500 | 50 to 500 | < 5 | CC(C)c1cnn2c(NCc3ccccc3Cl)nc(OC3CCN(C)CC3)nc12 [(VII-68), N-(2-chlorobenzyl)-8-isopropyl-2-((1-methylpiperidin-4-yl)oxy)pyrazolo[1,5-a][1,3,5]triazin-4-amine]
